Experimental data as given in patent US10829458B2 (Araxes Pharma LLC, priority 2015, dated 2020).

Target: T1, KRAS G12C 1-169, his-tagged protein, GDP-loaded (Homo sapiens, UniProt P01116, G12C)
T1 construct: KRAS G12C 1-169, his-tagged protein, GDP-loaded
Assay: Biochemical assay: covalent modification of KRAS G12C measured by mass spectrometry (RapidFire/TOF or Q-Exactive)
Details: covalent binding to KRAS G12C
Method: Test compounds were prepared as 10 mM stock solutions in DMSO (Fisher cat #BP-231-100). KRAS G12C 1-169, his-tagged protein, GDP-loaded was diluted to 2 μm in buffer (20 mM Hepes, 150 mM NaCl, 1 mM MgCl2). Compounds were tested for activity as follows:
Compounds were diluted to 50× final test concentration in DMSO in 96-well storage plates. Compound stock solutions were vortexed before use and observed carefully for any sign of precipitation. Dilutions were as follow: • For 100 μM final compound concentration, compounds were diluted to 5000 μM (5 μl 10 mM compound stock+5 μl DMSO and mixed well by pipetting. • For 30 μM final compound concentration, compounds were diluted to 1500 μM (3 μl 10 mM compound stock+17p DMSO) and mixed well by pipetting. • For 10 μM final compound concentration, compounds were diluted to 500 μM (2 μl 10 mM compound stock+38p DMSO) and mixed well by pipetting. 49p of the stock protein solution was added to each well of a 96-well PCR plate (Fisher cat #1423027). 1 μl of the diluted 50× compounds were added to appropriate wells in the PCR plate using 12-channel pipettor. Reactions were mixed carefully and thoroughly by pipetting up/down with a 200·1 multi-channel pipettor. The plate was sealed well with aluminum plate seal, and stored in drawer at room temperature for 30 min, 2 hour or 24 hrs. 5·1 of 2% formic acid (Fisher cat #A117) in DI H2O was then added to each well followed by mixing with a pipette. The plate was then resealed with aluminum seal and stored on dry ice until analyzed as described below.
The above described assays were analyzed by mass spectrometry according to one of the following two procedures:
The MS instrument is set to positive polarity, 2 GHz resolution, and low mass (1700) mode and allowed to equilibrate for 30 minutes. The instrument is then calibrated, switched to acquisition mode and the appropriate method loaded.
After another 30 minute equilibration time, a blank batch (i.e., buffer) is run to ensure equipment is operating properly. The samples are thawed at 37° C. for 10 minutes, briefly centrifuged, and transfer to the bench top. Wells A1 and H12 are spiked with 1 uL 500 uM internal standard peptide, and the plates centrifuged at 2000×g for 5 minutes. The method is then run and masses of each individual well recorded.
The masses (for which integration data is desired) for each well are pasted into the platemap and exported from the analysis. Masses for the internal standards are exported as well. The data at 50 ppm is extracted for the +19 charge state, and identity of well A1 is assigned using the internal standard spike and integrated. Peak data is exported as a TOF list and the above steps are repeated individually, for the +20, 21, 22, 23, 24, and 25 charge states.
The masses and peak intensities of KRAS G12C protein species were measured using a Dionex RSLCnano system (Thermo Scientific) connected to a Q Exactive Plus mass spectrometer (Thermo Scientific).
[…] of sample was each loaded onto a Aeris™ 3.6 μm WIDEPORE C4 200 Å, LC Column 50×2.1 mm column maintained at 40° C. at a flow rate of 600 μl min^−1 with […] (0.1% formic acid in acetonitrile). The liquid chromatography conditions were 20% solvent B for 1 min, 20% to 60% solvent B for 1.5 min, 60% to 90% solvent for 0.5 min, 90% solvent B for 0.2 min, 90% to 20% solvent B for 0.2 min, and then equilibrated for 1.6 min before the following sample injection. The flow rate was maintained at 600 μl min^−1 throughout the sample analysis.
The mass spectrometer was operated in profile mode at a resolution of 17500, 5 microscans, using 50 msec max injection time and an AGC target of 1e6, and a full mass range from 800-1850 m/z was recorded. The HCD trapping gas was optimized for maximum sensitivity for intact proteins. […]

SMILES | Binding % (compounds of structure (I)) | also measured
C=CC(=O)N1CCN(c2nc(OCCc3ccccn3)nc3c(F)c(-c4c(O)cccc4F)c(Cl)cc23)CC1 (atropisomer, axis not shown) [Example I-102, (R)-1-(4-(6-chloro-8-fluoro-7-(2-fluoro-6-hydroxyphenyl)-2-(2-(pyridin-2-yl)ethoxy)quinazolin-4-yl)piperazin-1-yl) prop-2-en-1-one] | + (+ indicates binding activity up to 50%) | –
C=CC(=O)N1CCN(c2nc(OCc3ccc(C#N)nc3)nc3c(F)c(-c4c(O)cccc4F)c(Cl)cc23)CC1 [Example I-129, 5-((4-(4-acryloyl-piperazin-1-yl)-6-chloro-8-fluoro-7-(2-fluoro-6-hydroxyphenyl)quinazolin-2-yloxy)methyl) picolinonitrile] | +++ (+++ indicates binding activity greater than 90%) | –
C=CC(=O)N1CCN(c2nc(OCCC3CCN(C4CC4)CC3)nc3c(F)c(-c4c(O)cccc4F)c(Cl)cc23)CC1 [Example I-192, 1-(4-(6-chloro-2-(2-(1-cyclopropyl-piperidin-4-yl)ethoxy)-8-fluoro-7-(2-fluoro-6-hydroxyphenyl)quinazolin-4-yl)piperazin-1-yl) prop-2-en-1-one] | +++ (+++ indicates binding activity greater than 90%) | –
C=CC(=O)N1CCN(c2nc(NC3CN(c4ncccn4)C3)nc3c(F)c(-c4c(C)ccc5[nH]ncc45)c(Cl)cc23)CC1 [Example I-187, 1-(4-(6-chloro-8-fluoro-7-(5-methyl-1H-indazol-4-yl)-2-((1-(pyrimidin-2-yl)azetidin-3-yl)amino)quinazolin-4-yl)piperazin-1-yl) prop-2-en-1-one] | + (+ indicates binding activity up to 50%) | –
C=CC(=O)N1CCN(c2nc(OC3CCN(C)CC3)nc3c(F)c(-c4c(C)ccc5[nH]ncc45)c(Cl)cc23)CC1 [Example I-59, 1-(4-(6-chloro-8-fluoro-7-(5-methyl-1H-indazol-4-yl)-2-(1-methyl-piperidin-4-yloxy)quinazolin-4-yl)piperazin-1-yl)prop-2-en-1-one] | +++ (+++ indicates binding activity greater than 90%) | –
C=CC(=O)N1CCN(c2nc(Oc3cnn(C)c3)nc3c(F)c(-c4c(O)cccc4F)c(Cl)cc23)CC1 [Example I-25, 1-(4-(6-chloro-8-fluoro-7-(2-fluoro-6-hydroxyphenyl)-2-(1-methyl-1H-pyrazol-4-yloxy)quinazolin-4-yl)piperazin-1-yl)prop-2-en-1-one] | +++ (+++ indicates binding activity greater than 90%) | –
C=CC(=O)N1CCN(c2nc(OCCNP(C)(C)=O)nc3c(F)c(-c4c(O)cccc4F)c(Cl)cc23)CC1 [Example I-207, N-(2-(4-(4-acryloyl-piperazin-1-yl)-6-chloro-8-fluoro-7-(2-fluoro-6-hydroxyphenyl)quinazolin-2-yloxy)ethyl)-P,P-dimethyl-phosphinic amide] | ++ (++ indicates binding activity from 50 to 90%) | –
C=CC(=O)N1CCN(c2nc(N3CC(N(C)C)C3)nc3c(F)c(-c4c(O)cccc4F)c(Cl)cc23)CC1 [Example I-55, 1-(4-(6-chloro-2-(3-(dimethyl-amino)azetidin-1-yl)-8-fluoro-7-(2-fluoro-6-hydroxyphenyl)quinazolin-4-yl)piperazin-1-yl) prop-2-en-1-one] | +++ (+++ indicates binding activity greater than 90%) | –
C=CC(=O)N1CCN(c2nc(OCCN(CC)CC)nc3c(F)c(-c4c(O)cccc4F)c(Cl)cc23)CC1 [Example I-40, 1-(4-(6-chloro-2-(2-(diethyl-amino)ethoxy)-8-fluoro-7-(2-fluoro-6-hydroxyphenyl)quinazolin-4-yl)piperazin-1-yl) prop-2-en-1-one] | +++ (+++ indicates binding activity greater than 90%) | –
C=CC(=O)N1CCN(c2nc(OC3CCN(C4CC4)CC3)nc3c(F)c(-c4c(O)cccc4F)c(Cl)cc23)CC1 [Example I-94, 1-(4-(6-chloro-2-(1-cyclopropyl-piperidin-4-yloxy)-8-fluoro-7-(2-fluoro-6-hydroxyphenyl)quinazolin-4-yl)piperazin-1-yl)prop-2-en-1-one] | +++ (+++ indicates binding activity greater than 90%) | –
O=C(/C=C/CN1CCOCC1)N1CCN(c2ncnc3c(F)c(-c4c(O)cccc4F)c(Cl)cc23)CC1 [II-1, (E)-1-(4-(6-chloro-8-fluoro-7-(2-fluoro-6-hydroxyphenyl)quinazolin-4-yl)piperazin-1-yl)-4-morpholinobut-2-en-1-one] | – | Binding % (compounds of structure (II)): + (+ indicates binding activity up to 50%)
C=CC(=O)N1CCN(c2nc(OCc3ccnnc3)nc3c(F)c(-c4c(O)cccc4F)c(Cl)cc23)CC1 [Example I-127, 1-(4-(6-chloro-8-fluoro-7-(2-fluoro-6-hydroxyphenyl)-2-(pyridazin-4-ylmethoxy)quinazolin-4-yl)piperazin-1-yl) prop-2-en-1-one] | +++ (+++ indicates binding activity greater than 90%) | –
C=CC(=O)N1CCN(c2ncnc3c(F)c(-c4c(O)cccc4F)c(Cl)cc23)[C@@H](CO)C1 [III-39, 1-((3R)-4-(6-chloro-8-fluoro-7-(2-fluoro-6-hydroxy-phenyl)quinazolin-4-yl)-3-(hydroxy-methyl)piperazin-1-yl)prop-2-en-1-one] | – | Binding % (compounds of structure (III)): + (+ indicates binding activity up to 50%)
C=CC(=O)N1CCN(c2nc(OCCN3CCOCC3)nc3c(F)c(-c4c(O)ccc(F)c4F)c(Cl)cc23)CC1 [Example I-91, 1-(4-(6-chloro-7-(2,3-difluoro-6-hydroxyphenyl)-8-fluoro-2-(2-morpholino-ethoxy)quinazolin-4-yl)piperazin-1-yl)prop-2-en-1-one] | +++ (+++ indicates binding activity greater than 90%) | –
C=CC(=O)N1CCN(c2nc(N3CCOCC3)nc3c(F)c(-c4c(O)cccc4F)c(Cl)cc23)CC1 [Example I-47, 1-(4-(6-chloro-8-fluoro-7-(2-fluoro-6-hydroxyphenyl)-2-morpholino-quinazolin-4-yl)piperazin-1-yl)prop-2-en-1-one] | +++ (+++ indicates binding activity greater than 90%) | –
C=CC(=O)N1CCN(c2nc(OCC(F)(F)c3ccccn3)nc3c(F)c(-c4c(O)cccc4F)c(Cl)cc23)CC1 [Example I-124, 1-(4-(6-chloro-2-(2,2-difluoro-2-(pyridin-2-yl)ethoxy)-8-fluoro-7-(2-fluoro-6-hydroxyphenyl)quinazolin-4-yl)piperazin-1-yl) prop-2-en-1-one] | +++ (+++ indicates binding activity greater than 90%) | –
C=CC(=O)N1CCN(c2nc(NC3CCN(C4CC4)CC3)nc3c(F)c(-c4c(C)ccc5[nH]ncc45)c(Cl)cc23)CC1 [Example I-20, 1-(4-(6-chloro-2-(1-cyclopropyl-piperidin-4-ylamino)-8-fluoro-7-(5-methyl-1H-indazol-4-yl)quinazolin-4-yl)piperazin-1-yl)prop-2-en-1-one] | +++ (+++ indicates binding activity greater than 90%) | –
C=CC(=O)N1CCN(c2nc(NC3CCN(C(C)C)CC3)nc3c(F)c(-c4c(C)ccc5[nH]ncc45)c(Cl)cc23)CC1 [Example I-136, 1-(4-(6-chloro-8-fluoro-2-(1-isopropyl-piperidin-4-ylamino)-7-(5-methyl-1H-indazol-4-yl)quinazolin-4-yl)piperazin-1-yl) prop-2-en-1-one] | +++ (+++ indicates binding activity greater than 90%) | –
